In ChEMBL document CHEMBL1201862, “PubChem BioAssay data set” (2004):
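Tested at 5 concentrations; 48 h exposure; 96-well plates; endpoints linearly interpolated, else capped at highest concentration. Abbreviation: GI50, concentration required for 50% inhibition of growth.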 The source made the active and inactive calls. No stated cut-off is given here; in the data, active = GI50 up to about 1.1 µM and inactive = higher.

Tests used:
Assay in all cases: NCI anticancer screen, dose series, 48 h
[1] = system: HOP-62
[2] = system: EKVX
[3] = system: HCC 2998
[4] = system: NCI-H522
[5] = system: SK-OV-3
[6] = system: UACC-62
[7] = system: MDA-MB-435
[8] = system: Hs-578T
[9] = system: DU-145
[10] = system: T47D
[11] = system: HOP-92
[12] = system: HT-29
[13] = system: M14
[14] = system: NCI-H23
[15] = system: MDA-N
[16] = system: RPMI-8226
[17] = system: SNB-75
[18] = system: RXF 393
[19] = system: U-251
[20] = system: SK-MEL-5
[21] = system: KM12
[22] = system: SW-620
[23] = system: COLO 205
[24] = system: TK-10
[25] = system: OVCAR-8
[26] = system: UO-31
[27] = system: SF-268
[28] = system: IGROV-1
[29] = system: OVCAR-4
[30] = system: CCRF-CEM
[31] = system: SN12C
[32] = system: MDA-MB-231
[33] = system: A498
[34] = system: HCT-116
[35] = system: NCI-H460
[36] = system: NCI/ADR-RES
[37] = system: CAKI-1
[38] = system: MOLT-4
[39] = system: OVCAR-5
[40] = system: K562
[41] = system: A549
[42] = system: NCI-H226
[43] = system: HL-60
[44] = system: 786-0
[45] = system: SF-539
[46] = system: SF-295
[47] = system: HCT-15
[48] = system: OVCAR-3
[49] = system: ACHN
[50] = system: UACC-257
[51] = system: SR
[52] = system: LOX IMVI
[53] = system: Malme-3M
[54] = system: PC-3
[55] = system: SK-MEL-28
[56] = system: MCF7
[57] = system: SK-MEL-2
[58] = system: SNB-19
[59] = system: BT-549

## O=C(/C=C\c1ccccc1-c1ccccc1)c1ccccc1
[1]
  GI50: > 100 µM (inactive)
[2]
  GI50: > 100 µM (inactive)
[3]
  GI50: > 100 µM (inactive)
[4]
  GI50: 17.9 µM (inactive)
[5]
  GI50: > 100 µM (inactive)
[6]
  GI50: > 100 µM (inactive)
[7]
  GI50: > 100 µM (inactive)
[8]
  GI50: > 100 µM (inactive)
[9]
  GI50: > 100 µM (inactive)
[10]
  GI50: 15.8 µM (inactive)
[11]
  GI50: > 100 µM (inactive)
[12]
  GI50: > 100 µM (inactive)
[13]
  GI50: > 100 µM (inactive)
[14]
  GI50: 33.3 µM (inactive)
[15]
  GI50: > 100 µM (inactive)
[16]
  GI50: 30.8 µM (inactive)
[17]
  GI50: 61.8 µM (inactive)
[18]
  GI50: 45.5 µM (inactive)
[19]
  GI50: > 100 µM (inactive)
[20]
  GI50: > 100 µM (inactive)
[21]
  GI50: 29.4 µM (inactive)
[22]
  GI50: > 100 µM (inactive)
[23]
  GI50: > 100 µM (inactive)
[24]
  GI50: > 100 µM (inactive)
[25]
  GI50: > 100 µM (inactive)
[26]
  GI50: > 100 µM (inactive)
[27]
  GI50: > 100 µM (inactive)
[28]
  GI50: > 100 µM (inactive)
[29]
  GI50: 11.1 µM (inactive)
[30]
  GI50: > 100 µM (inactive)
[31]
  GI50: > 100 µM (inactive)
[32]
  GI50: 12.2 µM (inactive)
[33]
  GI50: > 100 µM (inactive)
[34]
  GI50: 66.5 µM (inactive)
[35]
  GI50: > 100 µM (inactive)
[36]
  GI50: > 100 µM (inactive)
[37]
  GI50: > 100 µM (inactive)
[38]
  GI50: 92 µM (inactive)
[39]
  GI50: > 100 µM (inactive)
[40]
  GI50: > 100 µM (inactive)
[41]
  GI50: 3.93 µM (inactive)
[42]
  GI50: > 100 µM (inactive)
[43]
  GI50: 60.4 µM (inactive)
[44]
  GI50: > 100 µM (inactive)
[45]
  GI50: > 100 µM (inactive)
[46]
  GI50: > 100 µM (inactive)
[47]
  GI50: > 100 µM
[48]
  GI50: > 100 µM (inactive)
[49]
  GI50: > 100 µM (inactive)
[50]
  GI50: > 100 µM (inactive)
[51]
  GI50: > 100 µM (inactive)

## Cc1nc2[nH]ncn2c(=O)c1CCCl
[1]
  GI50: > 10 µM (inactive)
[2]
  GI50: > 10 µM (inactive)
[3]
  GI50: > 10 µM (inactive)
[4]
  GI50: > 10 µM (inactive)
[5]
  GI50: > 10 µM (inactive)
[6]
  GI50: > 10 µM (inactive)
[7]
  GI50: > 10 µM (inactive)
[8]
  GI50: > 10 µM (inactive)
[9]
  GI50: > 10 µM (inactive)
[10]
  GI50: > 10 µM (inactive)
[52]
  GI50: > 10 µM (inactive)
[12]
  GI50: > 10 µM (inactive)
[13]
  GI50: > 10 µM (inactive)
[14]
  GI50: > 10 µM (inactive)
[15]
  GI50: > 10 µM (inactive)
[53]
  GI50: > 10 µM (inactive)
[16]
  GI50: > 10 µM (inactive)
[17]
  GI50: > 10 µM (inactive)
[18]
  GI50: > 10 µM (inactive)
[54]
  GI50: > 10 µM (inactive)
[19]
  GI50: > 10 µM (inactive)
[55]
  GI50: > 10 µM (inactive)
[20]
  GI50: > 10 µM (inactive)
[22]
  GI50: > 10 µM (inactive)
[23]
  GI50: > 10 µM (inactive)
[24]
  GI50: > 10 µM (inactive)
[25]
  GI50: > 10 µM (inactive)
[26]
  GI50: > 10 µM (inactive)
[27]
  GI50: > 10 µM (inactive)
[28]
  GI50: > 10 µM (inactive)
[29]
  GI50: > 10 µM (inactive)
[30]
  GI50: > 10 µM (inactive)
[31]
  GI50: > 10 µM (inactive)
[32]
  GI50: > 10 µM (inactive)
[56]
  GI50: > 10 µM (inactive)
[33]
  GI50: > 10 µM (inactive)
[34]
  GI50: > 10 µM (inactive)
[35]
  GI50: > 10 µM (inactive)
[36]
  GI50: > 10 µM (inactive)
[37]
  GI50: > 10 µM (inactive)
[38]
  GI50: > 10 µM (inactive)
[39]
  GI50: > 10 µM (inactive)
[40]
  GI50: > 10 µM (inactive)
[41]
  GI50: > 10 µM (inactive)
[42]
  GI50: > 10 µM (inactive)
[43]
  GI50: > 10 µM (inactive)
[57]
  GI50: > 10 µM (inactive)
[58]
  GI50: > 10 µM (inactive)
[45]
  GI50: > 10 µM (inactive)
[47]
  GI50: > 10 µM
[49]
  GI50: > 10 µM (inactive)
[51]
  GI50: > 10 µM (inactive)

## O=c1ccn(C2OC(CO)C(O)C2O)c(=O)[nH]1 (configuration not stated)
[4]
  GI50: > 1000 µM (inactive)
[9]
  GI50: > 1000 µM (inactive)
[13]
  GI50: > 1000 µM (inactive)
[32]
  GI50: > 1000 µM (inactive)
[59]
  GI50: > 1000 µM (inactive)
[37]
  GI50: > 1000 µM (inactive)
[39]
  GI50: > 1000 µM (inactive)
[42]
  GI50: > 1000 µM (inactive)
[50]
  GI50: > 1000 µM (inactive)
